From patent US20140056898A1, “COMBINATION THERAPIES COMPRISING ANTI-ERBB3 AGENTS” (priority 2011, published 2014)
“Also recorded” adds a separate entry of the source.

Columns and labels:
BT474-M3 cells [1] = test: Spheroid in vitro tumor model assay, estrogen-stimulated; format: cell-based; conditions: estrogen-stimulated BT474-M3 spheroids, dose range, six days
Description: Cells are continued to culture for six days.
Multicellular spheroids are used to simulate the growth and microenvironmental conditions of tumors in vitro.

BT474-M3 cells [2] = test: Spheroid in vitro tumor model assay, dual ligand (estrogen and heregulin)-stimulated; format: cell-based; conditions: estrogen and heregulin (dual ligand)-stimulated BT474-M3 spheroids, dose range
Procedure: (§3) BT474-M3 wild type cells (2000 cells/well) are plated in Ultra Low Cluster 96-well plate (Costar). After overnight incubation, indicated treatments are introduced to the plate. Cells are continued to culture for six days. Spheroids are then examined by Nikon microscope and analyzed by MetaMorph Image Analysis Software (Molecular Devices). The spheroid size from cells cultured in medium containing 10% FBS is set as control.
(§4) The percent of spheroid growth inhibition (normalized to untreated, stimulated control) was determined for 1 μM doses of inhibitor treatment.

BT474-M3 cells [3] = test: Spheroid in vitro tumor model assay, heregulin-stimulated; format: cell-based; conditions: heregulin-stimulated BT474-M3 spheroids, dose range
Procedure: as §3, §4

BT474-M3-Aro cells = test: Aromatase-overexpressing BT474-M3 cell proliferation assay (WST-1); format: cell-based; conditions: androstenedione (200 nM) and heregulin (2 nM), three days; ratio 10:20:1 MM-111 to letrozole to lapatinib
Procedure: BT474-M3 cells were transfected with PS100010 vector containing human aromatase (gene accession No: NM_000103.2). Cells with stable expression of aromatase (BT474-M3-Aro) were obtained after selection with 400 μg/ml geneticin. For cell proliferation assay, BT474-M3-Aro cells (5000 cells/well) were plated in phenol red-free RPMI-1640 medium containing 5% charcoal-stripped FBS into 96-well plate. After overnight incubation, indicated treatments were introduced in the presence of androstenedione (A-4; 200 nM) and heregulin (HRG; 2 nM). […] Cell viability in the presence of 5% charcoal-stripped FBS was set as control (100%).
Androstenedione is a steroid hormone that is converted to estrogen by aromatase.

[4] = system: AKT phosphorylation (pAKT); test: Cell signaling assay, pAKT ELISA in heregulin-stimulated BT474-M3 cells; format: cell-based; conditions: 5 nM heregulin for 10 min, read-out: IC50, reduction of pAKT levels
Procedure: (§1) Cell lysates are probed for phospho-ErbB3 (pErbB3), and phospho-AKT (pAKT) by ELISA as described previously (Schoeberl et al, 2009). Inhibitor IC50 values are calculated by fitting dose-response data to a 4-parameter sigmoidal curve (GraphPad Prism®, GraphPad Software, Inc., La Jolla, Calif.).
(§2) CRL-1504™), cells were incubated with serial dilutions of either inhibitor for 15 minutes, 1 hour, 4 hours, and 24 hours followed by stimulation with 5 nM heregulin for 10 min. Amounts of pAKT and pErbB3 were measured by ELISA essentially as described.

BT474-M3 cells [5] = test: Apoptosis assay (Annexin V / PI, FACS) in spheroids; format: cell-based; conditions: MM-111 100 nM, lapatinib 33 nM; for Percent cell population: Early apoptosis: Annexin V positive, PI negative; for Percent cell population: Dead cells: PI positive, Annexin V negative
Procedure: After overnight incubation, spheroids are treated with inhibitor at concentrations indicated for 72 hours. Spheroids are then trypsinized and combined with floating cells. Cells are washed twice with cold PBS and suspended in binding buffer (0.01 M HEPES, pH 7.4; 0.14 M NaCl; 2.5 mM CaCl2). Cells are then stained with FITC-conjugated Annexin V and PI. Apoptotic cells are quantified on a FACSCalibur™ FACS machine.
Cells were then stained with Annexin V and propidium iodide (PI) and quantitated using FACS (FIG. 11, Table 2). Cell populations staining positive with Annexin V and PI were quantified as late apoptotic, cell populations staining positive with Annexin V but not PI were quantified as early apoptotic, cell populations staining positive for PI but not Annexin V were quantified as dead cells and populations of cells not stained with either Annexin V or PI were considered alive and not apoptotic (Table 2).

[6] = system: BT474-M3 breast cancer xenograft; test: BT474-M3 breast cancer xenograft efficacy study, MM-111 and lapatinib; format: in vivo, mice; conditions: from day 40 to day 7; MM-111 weekly, lapatinib daily at optimal efficacious dose
Procedure: Tumor xenografts are established by subcutaneous injection of BT474-M3 cells into the flank of 5-6 weeks old female athymic nude mice (nu/nu; Charles River Labs, Wilmington, Mass.). Mice receive a subcutaneous 60 day, slow-release estrogen implant in the opposite flank (0.72 mg pellet; Innovation Research of America, Sarasota, Fla.) 24 hours prior to the injection of cells.
The percent change in tumor volume from day 40 to day 7 (inoculation) was calculated for each group (FIG. 6b).

[7] = system: ErbB3 phosphorylation (pErbB3); test: Cell signaling assay, pErbB3 ELISA in heregulin-stimulated BT474-M3 cells; format: cell-based
Procedure: as §1
The amount of pErbB3 was measured by ELISA using the methods described above or minor variations thereof. Model-generated dose-response curves overlay the experimental data (FIG. 7a). […] Untreated and heregulin-stimulated cells were probed for pErbB3 and pAKT and the IC50 was calculated (FIG. 7b).
as §2

[8] = system: ErbB3 phosphorylation (pErbB3); test: Cell signaling assay, pErbB3 ELISA in heregulin-stimulated ZR75-30 cells; format: cell-based; conditions: 5 nM heregulin for 10 min, read-out: IC50, reduction of pErbB3 levels
Procedure: as §1, §2

[9] = system: AKT phosphorylation (pAKT); test: Cell signaling assay, pAKT ELISA in heregulin-stimulated ZR75-30 cells; format: cell-based; conditions: 5 nM heregulin for 10 min, read-out: IC50, reduction of pAKT levels
Procedure: as §1, §2

ErbB2 and ErbB3 = test: Affinity of MM-111 antigen-binding sites
BT474-M3 cells [10] = test: Cell proliferation assay (CellTiter-Glo); format: cell-based; conditions: 24 hours
Procedure: Cells (8,000/well) are seeded into 96-well plates and incubated overnight. Inhibitor is added at doses indicated and cells are treated for 24 hours. For experiments with ligand stimulation, cells are serum-starved overnight prior to addition of inhibitor and 2 nM heregulin 1-[…] (R&D Systems, Minneapolis, Minn.) is added 1 hour post-inhibitor treatment in media containing 5% FBS. Numbers of viable cells are measured as an indicator of cell proliferation using the CellTiter-Glo® Luminescent Cell Viability Assay (Promega, Madison, Wis.).

| Compound | inhibition of spheroid growth (in words) (BT474-M3 cells [1]) | inhibition of spheroid growth (in words) (BT474-M3 cells [2]) | inhibition of spheroid growth (in words) (BT474-M3 cells [3]) | inhibition of cell growth (in words) (BT474-M3-Aro cells) | IC50 [4] [nM] | Percent cell population: Live cells (BT474-M3 cells [5]; 72 hours) [%] | Percent cell population: Late apoptosis (BT474-M3 cells [5]; 72 hours, Annexin V and PI positive) [%] | Percent cell population: Early apoptosis (BT474-M3 cells [5]; 72 hours) [%] | Percent cell population: Dead cells (BT474-M3 cells [5]; 72 hours) [%] | total apoptotic cells (BT474-M3 cells [5]) | percent change in tumor volume [6] [%] | IC50 ([7]; BT474-M3 cells, 5 nM heregulin for 10 min, read-out: IC50, reduction of pErbB3 levels) [nM] | ability to inhibit heregulin-induced ErbB3 activation relative to lapatinib ([7]; incubation 15 minutes up to 24 hours) | IC50 [8] [nM] | IC50 [9] [nM] | affinity of ErbB2 antigen-binding site relative to ErbB3 antigen-binding site (ErbB2 and ErbB3) | inhibition of cell proliferation (viable cells) (BT474-M3 cells [10]; BT474-M3 cells in serum plus 2 nM heregulin) | inhibition of cell proliferation (viable cells) (BT474-M3 cells [10]; unstimulated BT474-M3 cells in serum) [%] | inhibition of heregulin-activated signaling (pErbB3, pAKT; in words) ([7]; BT474-M3 cells, 5 nM heregulin 10 min versus unstimulated, 1-hour incubation) |
| --- | --- | --- | --- | --- | --- | --- | --- | --- | --- | --- | --- | --- | --- | --- | --- | --- | --- | --- | --- |
| C[C@]12CC[C@@H]3c4ccc(O)cc4C[C@@H](CCCCCCCCC[S+]([O-])CCCC(F)(F)C(F)(F)F)[C@H]3[C@@H]1CC[C@@H]2O (some centres unmarked) [fulvestrant] | showed inhibitory effects on spheroid growth | inhibited spheroid growth | did not inhibit heregulin stimulated spheroid growth |  |  |  |  |  |  |  |  |  |  |  |  |  |  |  |  |
| N#Cc1ccc(C(c2ccc(C#N)cc2)n2cncn2)cc1 [letrozole] |  |  |  | did not result in significant inhibition of spheroid cell growth |  |  |  |  |  |  |  |  |  |  |  |  |  |  |  |
| MM-111: bispecific anti-ErbB2/anti-ErbB3 antibody, scFv HSA conjugate, amino acid sequence SEQ ID NO:1 | showed inhibitory effects on spheroid growth | inhibited spheroid growth; also recorded: greater inhibitory effects than trastuzumab | inhibited heregulin-induced spheroid growth | inhibited cell proliferation to a similar extent | 10 | 78.9 | 7.5 | 12.9 | 0.74 | about 20% | 14 | 3 | superior to lapatinib by greater than an order of magnitude | 5 | 4 | about 30 times |  |  |  |
| CS(=O)(=O)CCNCc1ccc(-c2ccc3ncnc(Nc4ccc(OCc5cccc(F)c5)c(Cl)c4)c3c2)o1 [lapatinib, reference compound] |  |  |  | did not result in growth inhibition except at high concentrations |  | 67.9 |  | 16.8 | 0.73 | about 31% | −11 |  |  |  |  |  | about 23% | ~50 | not an effective inhibitor of heregulin-activated signaling |
